According to patent publication US20100197610A1, “FRUCTOSE 1, 6 BISPHOSPHATE - A NOVEL ANTICONVULSANT DRUG” (Baylor College of Medicine, priority 2007, published 2010):

Key:
[1] = test system: pilocarpine-induced seizures; test: Pilocarpine model of acute seizures; assay type: in vivo, Sprague Dawley rats
Experimental: (§1) All animal experiments were carried out in accordance with the National Institutes of Health guide for the care and use of laboratory animals (NIH publication 8023, revised 1996) and with the approval of the local Animal Use Committee. Unless indicated, all chemicals were obtained from Sigma Chemical Co (St. Louis Mo.). Male, Sprague Dawley rats weighing 50-74 g (young) or 147-309 g (adult) were used in this study. Acute seizures were induced by kainic acid (KA; Ocean Produce Int., Canada), pilocarpine or pentylenetetrazole (PTZ) as previously described (Lian et al 2006). These models were chosen because they initiate seizures by different mechanisms and the seizures have a relatively gradual onset compared to seizures initiated by stimulation. There was no difference in the body weight of the animals receiving the different convulsants. For pilocarpine, kainic acid and PTZ, the mean weights were 219±5 g (range 163-275 g), 215±7 g (range 183-258 g), and 216±13 g (range 147-309 g), respectively. The animals in the drug treatment groups were not different in weight from the animals in the control groups.
(§2) After administration of KA (10 mg/kg, ip), pilocarpine (scopolamine methyl bromide 1 mg/kg, s.c followed 15 min later by 300 mg/kg, ip pilocarpine) or PTZ (50 mg/kg, ip) (Lian et al., 2006), animals were continuously monitored for seizure activity for at least 5 h after KA or pilocarpine and for 30 min after PTZ. Behavioral seizures were scored by an investigator blinded to the treatment. Latency to the first wet dog shake after KA, latency to the first forelimb clonus (after pilocarpine, kainic acid or PTZ) and the score and duration of seizures were measured. When at least 1 hour had passed without any head bobbing (for pilocarpine) or any wet dog shakes (for KA), seizures were considered over. Status epilepticus lasting longer than 4 hours (for KA) or 5 hours (for pilocarpine) were assigned 4 and 5 hours for seizure duration. For animals receiving PTZ, the seizure duration was defined as the period of tonic-clonic seizures. EEG recording in the hippocampus was conducted as previously described (Lian et al., 2004). After anesthesia, a recording electrode was placed in a burr hole centered at 3.0 mm posterior to bregma, 1.8 mm lateral to the midline and then lowered 3.0 mm. A ground screw and wire was placed over the frontal region in another burr hole. This assembly was fixed to the skull with dental cement.
(§3) Each animal was assigned the score of the most severe seizure observed. The behavioral seizures induced by KA or pilocarpine were scored according to an adjusted version of the scale of Racine (Bough et al., 2002): stage 1, wet dog shakes after KA or trembling after pilocarpine; stage 2, head bobbing and stereotypes; stage 3, unilateral forelimb clonus; stage 4, bilateral forelimb clonus; stage 5, rearing and falling; stage 6, jumping and/or running followed by falling. Death within 24 h was assigned stage 7.
(§4) Adult rats received either D-F1,6BP, sodium valproate (VPA, 0.3 g/kg), 2-DG (0.25, 0.5 g/kg) or normal saline (vehicle) intraperitoneally followed 1 h later by one of the convulsants. The dose for VPA was based on experimental evidence that doses from 0.1 to 0.4 g/kg (ip) are effective in animal models (Bough and Eagles, 2001; Manent et al., 2007). Three doses of F1,6BP (0.25, 0.5 and 1 g/kg) were tested with this dosing schedule. Two additional groups were administered F1,6BP (0.5 or 1 g/kg, n=5) after pilocarpine. In this experiment, the F1,6BP was given intraperitoneally at the first behavioral seizure, which was chewing movements of the jaw. Two additional sets of animals were fed the classic ketogenic diet (No. F3666; Bio-Serv, Frenchtown, N.J.). One set of animals was given the diet beginning on postnatal day 22-26 (KD-Yng) and maintained on this diet for 4 weeks. Thus the seizures were tested in this group when the animals had reached approximately the same age (50-54 days) as the majority of the animals tested. […]

[2] = test system: kainic acid-induced seizures; test: Kainic acid model of acute seizures; assay type: in vivo, Sprague Dawley rats
Experimental: as §1, §2, §3, §4

[3] = test system: PTZ-induced generalized tonic-clonic seizures; test: PTZ model of acute seizures; assay type: in vivo, Sprague Dawley rats
Experimental: as §1, §2
Adult rats received either D-F1,6BP, sodium valproate (VPA, 0.3 g/kg), 2-DG (0.25, 0.5 g/kg) or normal saline (vehicle) intraperitoneally followed 1 h later by one of the convulsants. The dose for VPA was based on experimental evidence that doses from 0.1 to 0.4 g/kg (ip) are effective in animal models (Bough and Eagles, 2001; Manent et al., 2007). Three doses of F1,6BP (0.25, 0.5 and 1 g/kg) were tested with this dosing schedule. Two additional groups were administered F1,6BP (0.5 or 1 g/kg, n=5) after pilocarpine. In this experiment, the F1,6BP was given intraperitoneally at the first behavioral seizure, which was chewing movements of the jaw. Two additional sets of animals were fed the classic ketogenic diet (No. F3666; Bio-Serv, Frenchtown, N.J.). One set of animals was given the diet beginning on postnatal day 22-26 (KD-Yng) and maintained on this diet for 4 weeks. Thus the seizures were tested in this group when the animals had reached approximately the same age (50-54 days) as the majority of the animals tested.
The latency to seizure onset, seizure score and seizure duration were averaged across animals in each group. Comparisons between groups were done with an analysis of variance with Bonferroni post hoc test. Statistical difference was defined as p<0.05.

[4] = test system: memory consolidation; details: subcutaneous 0.3 μmol, chick (Gibbs and Summers, 2002); cited from earlier work
[5] = 2-DG 0.25 and 0.5 g/kg, n=5 each
[6] = VPA 0.3 g/kg ip pretreatment, n=9

SMILES: O=CC[C@@H](O)[C@H](O)[C@H](O)CO [2-DG, 2-deoxyglucose, reference compound]
- animals with a stage 3 seizure ([1]; 2-DG 0.25 g/kg, n=6): only one animal
- seizure duration ([1]; pretreatment with 2-DG): decreasing
- seizure score ([1]; pretreatment with 2-DG): decreasing
- appearance of the first wet dog shake ([2]; 2-DG 0.25 g/kg, n=6): delayed
- effect on the other seizure parameters ([2]; 2-DG 0.25 g/kg, n=6): no effect
- anticonvulsant activity ([2]; 2-DG 0.5 g/kg, n=3): no additional activity
- animals that had seizures [3, 5]: All animals
- seizure latency [3, 5]: not increased
- seizure duration ([3]; 2-DG 0.25 g/kg): significantly shortened
- effect on memory consolidation [4]: inhibit memory consolidation

SMILES: CCCC(CCC)C(=O)[O-].[Na+] [VPA, sodium valproate, reference compound]
- animals with forelimb clonus ([1]; VPA 0.3 g/kg ip pretreatment): 6 out of 9
- animals that died [1, 6]: one died
- mean seizure score [1, 6]: significantly reduced
- seizure duration [1, 6]: significantly reduced
- appearance of forelimb clonus ([2]; VPA 0.3 g/kg ip, n=6): but not the appearance of forelimb clonus
- appearance of wet dog shakes ([2]; VPA 0.3 g/kg ip, n=6): significantly delayed
- duration of seizures ([2]; VPA 0.3 g/kg ip, n=6): decreased
- seizure score ([2]; VPA 0.3 g/kg ip, n=6): 4.5±0.2
- seizure duration ([3]; VPA 0.3 g/kg): 9 ± 4 s
- animals with no generalized tonic-clonic seizures ([3]; VPA 0.3 g/kg, n=8): two animals
- seizure latency ([3]; VPA 0.3 g/kg, the six animals with seizures): 185 ± 27 s
